Tests used:
Aβ42 = target: T1, Aβ42 (Homo sapiens, UniProt P05067); assay: ThT-based Aβ42 aggregation kinetics under quiescent (unseeded) conditions; format: biochemical
T1 construct: The recombinant Aβ (M1-42) peptide; made in house; host or cells: E. coli BL21 Gold (DE3)
Protocol: Solutions of monomeric peptides were prepared by dissolving the lyophilized Aβ42 peptide in 6 M GuHCl. Monomeric forms were purified from potential oligomeric species and salt using a Superdex 75 10/300 GL column (GE Healthcare) at a flowrate of 0.5 mL/min, and were eluted in 20 mM sodium phosphate buffer, pH 8 supplemented with 200 μM EDTA and 0.02% NaN3. The center of the peak was collected and the peptide concentration was determined from the absorbance of the integrated peak area using ε280=1400 l mol^−1 cm^−1. The obtained monomer was diluted with buffer to the desired concentration and supplemented with 20 μM Thioflavin T (ThT) from a 1 mM stock. All samples were prepared in low binding eppendorf tubes on ice using careful pipetting to avoid introduction of air bubbles. Each sample was then pipetted into multiple wells of a 96-well half-area, low-binding, clear bottom and PEG coating plate (Corning 3881), 80 μL per well.
We verified that the addition of 1% DMSO in the reaction mixture has no effect on Aβ42 aggregation.
Assays were initiated by placing the 96-well plate at 37° C. under quiescent conditions in a plate reader (Fluostar Omega, Fluostar Optima or Fluostar Galaxy, BMGLabtech, Offenburg, Germany). The ThT fluorescence was measured through the bottom of the plate with a 440 nm excitation filter and a 480 nm emission filter. The ThT fluorescence was followed for three repeats of each sample.
The time evolution of the total fibril mass concentration, M(t), is described by the following integrated rate law (30, 32)
(§1) [formula] where the kinetic parameters B±, C±, κ, κ∞ and ? are functions of the two ? combinations of the microscopic rate constants k+k2 and knk2, where kn, k+ and k2 are the primary nucleation, elongation and secondary nucleation rate constants, respectively.
The time evolution of the total fibril mass concentration, M(t), is described by the following integrated rate law
as §1, with “two” for “two ?”, “respectively. Aβ42 alone in 1% DMSO was first modeled to obtain the k+k2 and knk2 combined microscopic rate constants.” for “respectively.”
With the introduction of different small molecules, the aggregation process can be inhibited by one or more individual microscopic reactions. Microscopic rate constants k+k2 and knk2 were obtained in the presence of the molecules, and compared to the initial values of Aβ42 alone. This comparison allows one to understand which rate was mainly perturbed, as well as the potency of the compounds (by relative changes of their microscopic rates) with respect to each other.

Aβ42 fibrils = target: T2, Aβ42 fibrils (Homo sapiens, UniProt P05067); assay: Dot blot assay with fibril-specific OC antibody (label-free fibril formation); format: biochemical; conditions: 2 μM Aβ42, 4-fold excess
T2 construct: The recombinant Aβ (M1-42) peptide; made in house; host or cells: E. coli BL21 Gold (DE3)
Protocol: Blotting was performed using either Aβ42 fibril-specific antibody (OC, Millipore) or Aβ42 sequence-specific antibody (W0-2, Millipore). […] Aβ42 aliquots were spotted onto a nitrocellulose membrane (0.2 μm, Whatman) and then the membranes were dried and then blocked with Blocking One (Nacalai tesque) before immuno-detection. OC and W0-2 were used according to the manufacturers instructions. Alexa Fluor® 488-conjugated secondary antibodies (Life technologies) were subsequently added and fluorescence detection was performed using Typhoon Trio Imager (GE Healthcare). […] For the calibration curve (FIG. 3d), a series of dilutions between 4 μM and 0.1 μM were performed on freshly prepared Aβ42 fibrils and 4 μL aliquots were deposited onto the same nitrocellulose membrane (0.2 μm, Whatman) as the one used for OC fibril-specific antibody. […] However, under these conditions we could not detect oligomers due to their very low concentration during Aβ42 aggregation even when depositing on the membrane volumes as high as 20 μL.

[1] = test system: C. elegans GMC101 (Aβ-worm); assay: NIAD-4 staining of amyloid aggregates in living C. elegans; format: in vivo, Caenorhabditis elegans
Protocol: Live transgenic animals were incubated with NIAD-4 over a range of concentrations and times, and it was empirically determined that incubation of living animals with 1 μM NIAD-4 (0.1% DMSO in M9 buffer) for four hours at room temperature gave robust and reproducible staining. After staining, animals were Let recover on NGM plates for about 24 hrs to allow destaining via normal metabolism. Stained animals were mounted on 2% agarose pads containing 40 mM NaN3 as anaesthetic on glass microscope slides for imaging. Images were captured with a Zeiss Axio Observer.D1 fluorescence microscope (Carl Zeiss Microscopy GmbH, Jena, Germany) with a 20× objective and a 49004 ET-CY3/TRITC filter (Chroma Technology Corp, Bellows Falls, Vt., USA). Fluorescence intensity was calculated using ImageJ software (National Institutes of Health, Bethesda, Md., USA), and then normalized as the corrected total cell fluorescence (CTCF). Only the head region was considered, due to the high background signal in the guts. All experiments were carried out in triplicate and the data from one representative experiment are shown. Statistical significance was determined using t tests.

[2] = 2 μM Aβ42, 4-fold excess of compound

T1 sequence (P05067 671-713): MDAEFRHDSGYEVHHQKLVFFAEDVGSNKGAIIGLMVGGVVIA
T2 sequence (P05067 672-713 limits assumed): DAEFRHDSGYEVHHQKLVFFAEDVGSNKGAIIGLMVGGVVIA

## C=C(c1ccc(C(=O)O)cc1)c1cc2c(cc1C)C(C)(C)CCC2(C)C [bexarotene]
Aβ42; [2]
  increase of time to half-completion compared to Aβ42 alone: factor of two
  time to half-completion of the aggregation reaction: 4.50 ± 0.06 h
Aβ42; 2 μM Aβ42, 10-fold excess
  time for which unseeded aggregation was completely inhibited: 15 h
Aβ42; 5 μM Aβ42, 5-25 μM bexarotene
  effect on secondary pathways (k2k+): no (or very little) detectable effect
  primary nucleation rate constant kn: specifically decreased
Aβ42; increasing concentrations of bexarotene
  effect on Aβ42 aggregation: progressive delay
Aβ42 fibrils
  delay in the time required for half-completion of the aggregation process: 2 h
[1]; 10 μM
  time for which formation of Aβ42 fibrils was suppressed: 9 days of adulthood
[1]; Aβ-worm model in the presence of bexarotene
  level of aggregates (NIAD-4 fluorescence): essentially no aggregates being detected
